By IC50 is commonly meant the point on the concentration scale where inhibition reaches its midpoint. A higher IC50 goes with a need for much substance.

From PMC6225232, “Design, Synthesis and Biological Evaluation of Ligustrazine-Flavonoid Derivatives as Potential Anti-Tumor Agents” (Molecules : A Journal of Synthetic Chemistry and Natural …, 2018) come the findings set out here.

Holding throughout (assay type): cell-based, human
For assay [1], the system named is HepG-2. Kind of assay: MTT cytotoxicity assay, HepG-2. On the procedure: (§1) Five kinds of tumor cell lines and one normal endothelial cell were routinely cultured respectively in RPMI 1640 medium supplemented with 10% (V/V) FBS and 1% (V/V) penicillin-streptomycin, incubated at 37 °C in a 5% CO2 containing incubator. The five tumor cell lines were plated onto 96-well sterile plates in 100 μL/well of medium at a density of 3.5 × 10^3 cells per well and incubated at 37 °C with 5% CO2 for 24 h. Then luteolin, baicalein, apigenin, chrysin, quercetin, fisetin, genistein, daidzein, naringenin, DDP and compounds 10–25 were added at various concentrations (5, 10, 20, 40, 50 μΜ). Each plate contained control group, blank group, drug group and positive group (DDP). After 72 h, 20 μL MTT in phosphate buffered saline (PBS, 5 mg/mL) was added to each well and the plates were incubated at 37 °C for 4 h, then removing the liquid and adding dimethyl sulfoxide (DMSO, 100 μL) to dissolve the MTT formazan. The optical density (OD) for each well was measured on a BIORAD 550 spectrophotometer plate reader (Bio-Gene Technology Ltd., Guangzhou, China) at a wavelength of 490 nm. All tests were carried out three times in parallel.

The subject of assay [2] is Bel-7402. Description: MTT cytotoxicity assay, Bel-7402. The method, then:
as §1
(In general: Tetrazolium assays rely on reduction of a dye to a coloured formazan, in cell work by metabolically active cells.)

The subject of assay [3] is HT-29. Description: MTT cytotoxicity assay, HT-29. On the procedure: as §1
Assay [4] concerns MCF-7. Kind of assay: MTT cytotoxicity assay, MCF-7. The method, then:
as §1

In assay [5] the test system is HeLa. Kind of assay: MTT cytotoxicity assay, HeLa. The following applies: 72 h. The method, then: as §1
The subject of assay [6] is HUVEC-12. Description: MTT cytotoxicity assay using HUVEC-12 cell. Conditions: for Proliferation Rate (%) 2.5 μM / Proliferation Rate (%) 5 μM / Proliferation Rate (%) 10 μM / Proliferation Rate (%) 20 μM / Proliferation Rate (%) 40 μM: HUVEC-12, 24 h, negative = inhibition; for IC50: MTT, 24 h. On the procedure:
Five kinds of tumor cell lines and one normal endothelial cell were routinely cultured respectively in RPMI 1640 medium supplemented with 10% (V/V) FBS and 1% (V/V) penicillin-streptomycin, incubated at 37 °C in a 5% CO2 containing incubator.
The HUVEC-12 cell were seeded in 96-well plates (6.0 × 10^3 cells/ well), and incubated at 37 °C in a 5% CO2 containing incubator. After 24 h, the medium was replaced with fresh medium containing the compounds to be tested. Compounds 14, 19 and DDP were added in final concentrations ranging from 2.5 to 40 μM. Each plate contained control group, blank group and drug group. After 24 h, 20 μL MTT was added to each well and the plates were incubated at 37 °C for 4 h, then removing the liquid and adding dimethyl sulfoxide (DMSO) (100 μL) to dissolve the MTT formazan. The optical density (OD) for each well was measured on a BIORAD 550 spectrophotometer plate reader at a wavelength of 490 nm. All tests were carried out three times in parallel. The proliferation inhibition rates of tumor cells were calculated by {1 − [OD490 (Drug group) − OD490 (Blank group)]/[OD490 (Control group) − OD490 (Blank group)]} × 100%.

For the molecule `O=c1cc(-c2ccc(O)cc2)oc2cc(O)cc(O)c12` [Apigenin], the half-inhibitory concentration (IC50) was 16.1 ± 1.52 µM in assay [1] (Homo sapiens, HepG2, 72 h); 28.2 ± 0.38 µM in assay [2] (Homo sapiens, Bel-7402, 72 h); 23.4 ± 1.89 µM in assay [3] (Homo sapiens, HT-29, 72 h); 29.7 ± 1.43 µM in assay [4] (Homo sapiens, MCF7, 72 h); 30.6 ± 0.71 µM in assay [5] (Homo sapiens).

Take `O=c1cc(-c2ccccc2)oc2cc(O)c(O)c(O)c12` [Baicalein]: the 50% inhibitory concentration (IC50) is 20.4 ± 2.07 µM in assay [1] (Homo sapiens, HepG2, 72 h); 21.6 ± 3.68 µM in assay [2] (Homo sapiens, Bel-7402, 72 h); 19.2 ± 2.72 µM in assay [3] (Homo sapiens, HT-29, 72 h); 37.9 ± 1.52 µM in assay [4] (Homo sapiens, MCF7, 72 h); 22.8 ± 3.54 µM in assay [5] (Homo sapiens).

`O=c1cc(-c2ccccc2)oc2cc(O)cc(O)c12` [Chrysin]: the concentration for half-maximal inhibition (IC50) in assay [1] (Homo sapiens, HepG2, 72 h) is 15.6 ± 0.3 µM; in assay [2] (Homo sapiens, Bel-7402, 72 h), 35 ± 1.46 µM; in assay [3] (Homo sapiens, HT-29, 72 h), 30.3 ± 1.96 µM; in assay [4] (Homo sapiens, MCF7, 72 h), 32.1 ± 2.78 µM; in assay [5] (Homo sapiens) it was over 40 µM.

On to `Cc1nc(C)c(COc2cc(O)c3c(=O)cc(-c4ccccc4)oc3c2)nc1C` [Compound 10, 5-Hydroxy-2-phenyl-7-((3,5,6-trimethylpyrazin-2-yl)methoxy)-4H-chromen-4-one], for which the IC50 in assay [1] (Homo sapiens, HepG2, 72 h) is over 40 µM; in assay [2] (Homo sapiens, Bel-7402, 72 h) it was over 40 µM; in assay [3] (Homo sapiens, HT-29, 72 h) it was over 40 µM; in assay [4] (Homo sapiens, MCF7, 72 h) it was over 40 µM; in assay [5] (Homo sapiens) it was 26.7 ± 0.34 µM.

As for `Cc1nc(C)c(COc2cc3oc(-c4ccccc4)cc(=O)c3c(OCc3nc(C)c(C)nc3C)c2OCc2nc(C)c(C)nc2C)nc1C` [Compound 13, 2-Phenyl-5,6,7-tris((3,5,6-trimethylpyrazin-2-yl)methoxy)-4H-chromen-4-one], the 50% inhibitory concentration (IC50) in assay [1] (Homo sapiens, HepG2, 72 h) is 13.4 ± 2.5 µM; in assay [2] (Homo sapiens, Bel-7402, 72 h) it was 26.13 ± 0.11 µM; in assay [3] (Homo sapiens, HT-29, 72 h), 22.4 ± 0.35 µM; in assay [4] (Homo sapiens, MCF7, 72 h), over 40 µM; in assay [5] (Homo sapiens) it was 17.3 ± 1.07 µM.

For the molecule `Cc1nc(C)c(COc2ccc(/C=C/C(=O)c3c(OCc4nc(C)c(C)nc4C)cc(OCc4nc(C)c(C)nc4C)cc3OCc3nc(C)c(C)nc3C)cc2)nc1C` [Compound 16, (E)-3-(4-((3,5,6-Trimethylpyrazin-2-yl)methoxy)phenyl)-1-(2,4,6-tris((3,5,6-trimethylpyrazin-2-yl)-methoxy)phenyl)prop-2-en-1-one], the IC50 was 20.6 ± 1.39 µM in assay [1] (Homo sapiens, HepG2, 72 h); over 40 µM in assay [2] (Homo sapiens, Bel-7402, 72 h); 34.4 ± 2.32 µM in assay [3] (Homo sapiens, HT-29, 72 h); 16.5 ± 0.45 µM in assay [4] (Homo sapiens, MCF7, 72 h); 30.5 ± 2.62 µM in assay [5] (Homo sapiens).

On to `Cc1nc(C)c(COc2ccc(-c3coc4cc(OCc5nc(C)c(C)nc5C)cc(O)c4c3=O)cc2)nc1C` [Compound 17, 5-Hydroxy-7-((3,5,6-trimethylpyrazin-2-yl)methoxy)-3-(4-((3,5,6-trimethylpyrazin-2-yl)methoxy)-phenyl)-4H-chromen-4-one], for which the IC50 in assay [1] (Homo sapiens, HepG2, 72 h) was over 40 µM; in assay [2] (Homo sapiens, Bel-7402, 72 h), over 40 µM; in assay [3] (Homo sapiens, HT-29, 72 h), 10.7 ± 1.35 µM; in assay [4] (Homo sapiens, MCF7, 72 h), over 40 µM; in assay [5] (Homo sapiens) it was over 40 µM.

In the case of `Cc1nc(C)c(COc2ccc(-c3coc4cc(O)ccc4c3=O)cc2)nc1C` [Compound 19, 7-Hydroxy-3-(4-((3,5,6-trimethylpyrazin-2-yl)methoxy)phenyl)-4H-chromen-4-one], the IC50 in assay [1] (Homo sapiens, HepG2, 72 h) was 14.5 ± 0.48 µM; in assay [2] (Homo sapiens, Bel-7402, 72 h) it was 28.9 ± 0.49 µM; in assay [3] (Homo sapiens, HT-29, 72 h), 11.7 ± 1.29 µM; in assay [4] (Homo sapiens, MCF7, 72 h), 10.4 ± 1.23 µM; in assay [5] (Homo sapiens) it was 14.3 ± 1.17 µM; in assay [6] (Homo sapiens) it was over 40 µM. The “Proliferation Rate (%) 2.5 μM” value in assay [6] is listed as −8.75 ± 0.38%. Moreover, the “Proliferation Rate (%) 5 μM” value in assay [6] was −19.35 ± 0.35%. Further, the “Proliferation Rate (%) 10 μM” value in assay [6] was −19.49 ± 2.17%. Besides, in assay [6], the “Proliferation Rate (%) 20 μM” value is listed as −24.22 ± 3.19%. Also, the “Proliferation Rate (%) 40 μM” value in assay [6] is listed as −25.07 ± 1.02%.

For the molecule `Cc1nc(C)c(COc2ccc(-c3coc4cc(OCc5nc(C)c(C)nc5C)ccc4c3=O)cc2)nc1C` [Compound 20, 7-((3,5,6-Trimethylpyrazin-2-yl)methoxy)-3-(4-((3,5,6-trimethylpyrazin-2-yl)methoxy)phenyl)-4H-chromen-4-one], the IC50 is over 40 µM in assay [1] (Homo sapiens, HepG2, 72 h); 25.2 ± 1.72 µM in assay [2] (Homo sapiens, Bel-7402, 72 h); 10.9 ± 2.3 µM in assay [3] (Homo sapiens, HT-29, 72 h); over 40 µM in assay [4] (Homo sapiens, MCF7, 72 h); 16.5 ± 1.79 µM in assay [5] (Homo sapiens).

As to `N.N.[Cl][Pt][Cl]` [DDP, reference compound], 4.14 ± 0.16 µM corresponded to half-maximal inhibition in assay [1] (72 h) (IC50). The same molecule had an IC50 in assay [2] (72 h) of 6.73 ± 0.37 µM. Moreover, in assay [3] (72 h), it took 5.83 ± 0.59 µM to reach half-maximal inhibition (IC50). Besides, 6.75 ± 0.57 µM corresponded to half-maximal inhibition in assay [4] (72 h) (IC50). Half-maximal inhibition in assay [5] (IC50) required 4.76 ± 0.41 µM. Moreover, in assay [6], the “Proliferation Rate (%) 2.5 μM” value is reported as −23.93 ± 0.75%, the “Proliferation Rate (%) 5 μM” value is −31.38 ± 1.46%, the “Proliferation Rate (%) 10 μM” value is on record as −58.24 ± 0.82% and the “Proliferation Rate (%) 20 μM” value is listed as −66.58 ± 1.75%. Besides, in assay [6], the “Proliferation Rate (%) 40 μM” value is reported as −82.69 ± 2.19% and the IC50 was found to be 9.11 ± 0.54 µM.

As for `O=c1c(-c2ccc(O)cc2)coc2cc(O)ccc12` [Daidzein], the IC50 was 21.8 ± 1.53 µM in assay [1] (Homo sapiens, HepG2, 72 h); over 40 µM in assay [2] (Homo sapiens, Bel-7402, 72 h); over 40 µM in assay [3] (Homo sapiens, HT-29, 72 h); 36.8 ± 1.48 µM in assay [4] (Homo sapiens, MCF7, 72 h); over 40 µM in assay [5] (Homo sapiens).

`O=c1c(O)c(-c2ccc(O)c(O)c2)oc2cc(O)ccc12` [Fisetin]: the IC50 is 17.4 ± 1.04 µM in assay [1] (Homo sapiens, HepG2, 72 h); 25.5 ± 1.54 µM in assay [2] (Homo sapiens, Bel-7402, 72 h); 23.9 ± 0.81 µM in assay [3] (Homo sapiens, HT-29, 72 h); 38.1 ± 1.83 µM in assay [4] (Homo sapiens, MCF7, 72 h); 20.9 ± 1.65 µM in assay [5] (Homo sapiens).

On to `O=c1c(-c2ccc(O)cc2)coc2cc(O)cc(O)c12` [Genistein], for which the IC50 in assay [1] (Homo sapiens, HepG2, 72 h) was 19.8 ± 1.31 µM; in assay [2] (Homo sapiens, Bel-7402, 72 h), 34.7 ± 0.63 µM; in assay [3] (Homo sapiens, HT-29, 72 h), 31.13 ± 0.26 µM; in assay [4] (Homo sapiens, MCF7, 72 h) it was 35.6 ± 1.38 µM; in assay [5] (Homo sapiens) it was 34.6 ± 2.52 µM.

As to `O=c1cc(-c2ccc(O)c(O)c2)oc2cc(O)cc(O)c12` [Luteolin], the IC50 in assay [1] (Homo sapiens, HepG2, 72 h) amounted to 11.8 ± 0.44 µM; in assay [2] (Homo sapiens, Bel-7402, 72 h), 14.5 ± 0.68 µM; in assay [3] (Homo sapiens, HT-29, 72 h), 19.2 ± 1.17 µM; in assay [4] (Homo sapiens, MCF7, 72 h) it was 17 ± 0.31 µM; in assay [5] (Homo sapiens) it was 21.3 ± 1.12 µM.

Take `O=c1c(O)c(-c2ccc(O)c(O)c2)oc2cc(O)cc(O)c12` [Quercetin]: the IC50 in assay [1] (Homo sapiens, HepG2, 72 h) is 13.6 ± 0.73 µM; in assay [2] (Homo sapiens, Bel-7402, 72 h), 30.4 ± 2.51 µM; in assay [3] (Homo sapiens, HT-29, 72 h), 27 ± 0.47 µM; in assay [4] (Homo sapiens, MCF7, 72 h), over 40 µM; in assay [5] (Homo sapiens), 20.8 ± 4.04 µM.
